The target in one experiment is T1, hDAT (Homo sapiens, UniProt Q01959).
T1 construct: expressed in transfected cells; host or cells: HEK-293 (HEK-hDAT), membranes
The experiment is described as follows: competition binding assay, recombinant human DAT in HEK-293 cell membranes. The note with it: [125I]RTI-55 0.2 nM, ± mean standard error, 3 trials, read-out: Inhibition of binding at human monoamine transporters (Ki) hDAT. The text has this:
(§1) These transporters control the amount of the three monoamines in the TMMS and therefore regulate fast excitatory and inhibitory neurotransmission in the CNS. Thus, the relative amounts of all three of these monoamines in the TMMS of brain controls mammalian neurobehaviors. To determine the Ki of the representative compounds; recombinant human monoamine transporters (DAT, SERT and NET) were expressed in HEK-293 cells as described in Eshleman et al. (1999). The HEK-hDAT, HEK-hSERT and HEK-hNET cells were incubated in modified Eagle's medium or Dulbecco's modified Eagle's medium exactly as described by Eshleman et al. Cells were grown until confluent on 150 mm diameter tissue culture dishes in a humidified 10% CO2 environment at 37° C. […] Paroxetine (SERT), [125sup I] RTI-55 binding (DAT) and (NET). The binding assays contained an aliquot of membranes prepared from the HEK cell lines expressing the recombinant human transporters (≈12-30 μg protein, depending on the cell line, adjusted to bind <10% of the total radioactivity added to the assay), [125supI] RTI-55 (0.2 nM final concentration) or [3supH] Paroxetine (0.4 nM final concentration) along with Krebs-HEPES assay buffer to yield a final volume of 250 μL. Specific binding was defined as the difference in binding observed in the presence and absence of 10 μM nomifensine (HEK-hDAT), 10 uM desipramine HEK-NET) or 10 μM imipramine (HEK-hSERT). The reaction was incubated for 90 min at room temperature in the dark and was terminated by vacuum filtration. Competition experiments were conducted with duplicate determinations.

The target in the next experiment is T2, hSERT (Homo sapiens, UniProt P31645).
T2 construct: expressed in transfected cells; host or cells: HEK-293 (HEK-hSERT), membranes
T2 sequence (P31645 whole entry): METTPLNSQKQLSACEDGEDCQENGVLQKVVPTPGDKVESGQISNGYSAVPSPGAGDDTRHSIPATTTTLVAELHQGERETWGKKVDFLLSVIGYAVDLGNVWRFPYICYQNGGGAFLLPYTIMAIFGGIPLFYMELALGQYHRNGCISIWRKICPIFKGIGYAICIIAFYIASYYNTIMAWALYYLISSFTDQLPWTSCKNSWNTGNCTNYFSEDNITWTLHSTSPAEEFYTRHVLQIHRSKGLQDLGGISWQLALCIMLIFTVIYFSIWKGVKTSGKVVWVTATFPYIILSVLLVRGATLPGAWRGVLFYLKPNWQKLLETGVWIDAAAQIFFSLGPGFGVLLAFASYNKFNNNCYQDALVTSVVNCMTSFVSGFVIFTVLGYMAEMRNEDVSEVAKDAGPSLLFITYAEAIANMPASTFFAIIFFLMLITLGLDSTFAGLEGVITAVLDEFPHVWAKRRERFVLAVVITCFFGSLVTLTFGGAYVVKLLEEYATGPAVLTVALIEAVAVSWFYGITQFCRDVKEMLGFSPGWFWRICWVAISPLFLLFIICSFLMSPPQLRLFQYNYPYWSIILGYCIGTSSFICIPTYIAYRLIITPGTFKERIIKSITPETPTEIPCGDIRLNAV
The experiment can be described thus: competition binding assay, recombinant human SERT in HEK-293 cell membranes.
Excerpt: as §1

The target of another experiment is T3, hNET (Homo sapiens, UniProt P23975).
T3 construct: expressed in transfected cells; host or cells: HEK-293 (HEK-hNET), membranes
T3 sequence (P23975 whole entry): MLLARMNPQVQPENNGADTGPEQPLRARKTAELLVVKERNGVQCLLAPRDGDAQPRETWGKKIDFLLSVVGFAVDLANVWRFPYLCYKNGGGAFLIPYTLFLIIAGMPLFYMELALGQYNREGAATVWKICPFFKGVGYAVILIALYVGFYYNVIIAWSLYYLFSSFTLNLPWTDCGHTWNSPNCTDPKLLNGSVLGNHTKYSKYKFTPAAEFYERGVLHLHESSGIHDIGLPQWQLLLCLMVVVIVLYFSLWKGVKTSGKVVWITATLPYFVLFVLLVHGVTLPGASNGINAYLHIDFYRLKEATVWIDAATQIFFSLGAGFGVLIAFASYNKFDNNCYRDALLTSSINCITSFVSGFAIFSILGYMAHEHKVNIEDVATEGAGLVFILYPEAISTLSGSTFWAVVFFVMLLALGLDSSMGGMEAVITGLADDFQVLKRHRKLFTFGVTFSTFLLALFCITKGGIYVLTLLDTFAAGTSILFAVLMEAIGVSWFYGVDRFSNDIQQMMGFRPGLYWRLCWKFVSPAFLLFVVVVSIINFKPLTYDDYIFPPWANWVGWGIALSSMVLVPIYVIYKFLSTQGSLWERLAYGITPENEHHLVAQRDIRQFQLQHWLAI
The experiment can be described thus: competition binding assay, recombinant human NET in HEK-293 cell membranes.
Excerpt: as §1

A further experiment concerns chronic fatigue syndrome. The experiment is described as follows: clinical case study, chronic fatigue syndrome (Example 5). The format is in vivo, human. The note with it: person, Mazindol 5.0 mg per day, after 10 days of therapy. The text has this:
P. C. a person had suffered from chronic fatigue syndrome, “chemical sensitivity and for one year with marked fatigue each day beginning in the early or mid afternoon. There has been some accompanying muscle aching, but no symptoms of central neurosystem involvement. Their functioning at work and at home had been seriously impaired. EBV titers were positive.

A further experiment deals with symptoms of ADHD. The experiment is described as follows: clinical case study, ADHD (Example 3). The experiment is classed as in vivo, human. The text has this: patient two is a person. […], they were also being treated with risperidone which continued for 2 years. […] Subsequently, the risperidone was then completely discontinued without any recurrence of symptoms of ADHD (i.e. poor attention span, hyperactivity, or inappropriate behavior).

For the next experiment, the system named is Tourette syndrome. The experiment is described as follows: clinical case study, Tourette syndrome with ADHD (Example 4). The experiment is classed as in vivo, human. The note with it: patient, Mazindol 7.5 mg per day started. The method, then: patient one is a person. They began to have constant vocal tics. Motor tics started […], consisting of licking their lips, rolling their eyes, hand and foot tics. They were diagnosed as having Tourette syndrome. […], the major problems were with their tics, outbursts and lack of control. Despite treatment with methylphenidate 20 mg twice a day (bid), haloperidol 0.5 mg and paroxetine 10 mg, they were in special school and was suffering from uncountable motor and vocal tics everyday during waking hours and with outbursts of shouting, coprolalia and episodes of self-mutilation. coprolabia, lying, hitting things and people, and extremely oppositional.

In another experiment the test system is dementia. The experiment can be described thus: clinical case study, dementia with motor impairment (Example 7). The format is in vivo, human. Particulars: person, Mazindol 8 mg per day, after 2 weeks of treatment. The text has this: R 0 is a person had suffered from motor impairment and cognitive decline. They developed frank dementia and required institutionalization and nursing care. […] Based on reports by their care givers their became more aware of surrounding and was able to recognize family member for the first time in one year and was not “hearing and seeing things that were not there”.

Experiment [1] has as its system reward deficiency disorder. The experiment is described as follows: clinical case study, reward deficiency disorder (Example 6). The experiment is classed as in vivo, human. Particulars: person, Mazindol 2 mg BID, over several weeks. The text has this: W. K. a person had suffered from alcohol abuse, sexual addiction and pathologic gambling for 10 years. They had been in counseling, Alcoholic Anonymous, Gamblers Anonymous on and off over the past 10 years with minimal effects. They had lost their marriage and several jobs as result of their behavioral problems. They had been treated with antidepressants, but they had been of little help. […] In addition, they reported that the thrill they have always gotten from gambling was no long present and they no longer felt compulsion to gamble.

Experiment [2] deals with obsessive compulsive behavior. The experiment can be described thus: clinical case study, obsessive compulsive behavior (Example 8). The experiment is classed as in vivo, human. The note with it: person, Mazindol 5 mg per day. The text has this:
patient five is a person who developed compulsive behaviors after the birth of their first child. […] They washed all food even if it had been pre-packaged and placed in specific foods in specific locations in their pantry and refrigerator which they were sure were the “safest: They wore gloves when they left the house and made […] children do so as well. They sprayed disinfectant on everything […] or […] children came in contact with and refused in eat in restaurants. Prior to their pregnancy they had been diagnosed with polycystic ovary disease and need treatment in order to conceive. They were told that they were also “borderline diabetic”. […] Shortly, after beginning their therapy they reported that “mood was better” and they didn't “feel anxious” about bacteria anymore. After three weeks of therapy with Mazindol they stopped wearing gloves (and forcing […] children to do so) and using disinfectant. Their spouse reported that they were a “new […]” and they were no allowed to put the groceries away without having to place it in particular places.

[3] abbreviates: [3H]Paroxetine 0.4 nM, HEK-hSERT membranes, ± mean standard error, 3 trials, read-out: Inhibition of binding at human monoamine transporters (Ki) hSERT.
Where [4] appears, read: [125I]RTI-55 0.2 nM, HEK-hNET membranes, ± mean standard error, 3 trials, read-out: Inhibition of binding at human monoamine transporters (Ki) hNET.

Where two headings read alike, the source gives them in different places.

T1 sequence (Q01959 whole entry): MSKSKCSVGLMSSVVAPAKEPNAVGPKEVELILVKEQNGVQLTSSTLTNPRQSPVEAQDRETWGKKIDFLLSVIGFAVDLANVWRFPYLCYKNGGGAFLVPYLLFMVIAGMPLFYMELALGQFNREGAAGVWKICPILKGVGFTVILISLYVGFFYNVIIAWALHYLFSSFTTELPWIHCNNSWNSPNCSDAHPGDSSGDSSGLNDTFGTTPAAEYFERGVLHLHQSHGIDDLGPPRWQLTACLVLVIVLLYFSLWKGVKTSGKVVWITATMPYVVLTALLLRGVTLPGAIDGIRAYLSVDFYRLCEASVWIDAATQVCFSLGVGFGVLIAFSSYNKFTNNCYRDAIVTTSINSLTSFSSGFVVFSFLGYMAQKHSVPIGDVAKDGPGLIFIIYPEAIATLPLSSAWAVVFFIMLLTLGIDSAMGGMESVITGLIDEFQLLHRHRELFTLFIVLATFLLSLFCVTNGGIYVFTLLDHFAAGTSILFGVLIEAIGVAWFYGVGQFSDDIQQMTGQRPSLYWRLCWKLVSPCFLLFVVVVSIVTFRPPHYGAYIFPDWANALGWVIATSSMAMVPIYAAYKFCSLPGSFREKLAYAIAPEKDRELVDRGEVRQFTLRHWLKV

On to `OC1(c2ccc(Cl)c(Cl)c2)c2ccccc2C2=NCCN21` (stereo not drawn) [Cpd 1, 5-(3,4-dichlorophenyl)-2,5-dihydro-5H-imidazo(2,1-a)isoindol-5-ol], for which the figures for the Ki at hDAT, at hSERT (setting [3]) and at hNET (setting [4]) were 25 ± 4.8 nM, 101 ± 7.9 nM and 363 ± 41 nM, respectively.

For the compound `Clc1ccc(C2c3ccccc3C3=NCCN32)cc1` (stereo not drawn) [Cpd 2, 5-(4-Chlorophenyl)-2,5-dihydro-5H-imidazo(2,1-a)is oindole], the Ki amounted to 45 ± 11 nM at hDAT, 14 ± 5 nM at hSERT (setting [3]) and 56 ± 19 nM on hNET (setting [4]).

For `Clc1ccc(C2c3ccccc3C3=NCCN32)cc1` (stereo not drawn) [Cpd 3, 5-(4-Chlorophenyl)-2,3-dihydro-5H-imidazo (2,1-a)is oindole], the Ki on hDAT is 111 ± 7.3 nM; on hSERT (setting [3]), 312 ± 45 nM; on hNET (setting [4]), 89 ± 18 nM.

For the compound `OC1(c2ccc(Cl)cc2)c2ccccc2C2=NCCN21` (stereo not drawn) [mazindol, 5-(4-Chlorophenyl)-2,5-dihydro-5H-imidazo(2,1-a)is oindol-5-ol], the “clinical response of fatigue and muscle ache” value in the experiment with chronic fatigue syndrome was “complete relief of their fatigue and muscle ache symptoms”. In addition, the “recurrence of ADHD symptoms on maintenance” value in the experiment on symptoms of ADHD (Mazindol 2.5 mg/day as sole agent, over the next 3 years) is reported as “without the return of any symptoms of ADHD”. The “clinical response of ADHD symptoms” value in the experiment with symptoms of ADHD (patient, Mazindol 2.5 mg BID started, within 2 months) is on record as “improved attention span, loss of hyperactivity”. Also, the “clinical response of tics, outbursts and related symptoms” value in the experiment on Tourette syndrome is reported as “significant improvement in these symptoms”. The figures for the Ki at hSERT and on hNET were 56 ± 9 nM and 24 ± 2 nM, respectively. Also, the “clinical response of motor function and dementia” value in the experiment on dementia is “improvement of their motor function, and their dementia”. Moreover, the “clinical response of drinking and gambling behavior” value in [1] is recorded as “able to completely stop drinking after 5 weeks”. Also, the “clinical response of obsessive compulsive behavior” value in experiment [2] is reported as “relief of their obsessive compulsive behavior”.

As a reminder, the Ki is the equilibrium dissociation constant of an inhibitor or competing ligand from its target.
